Measured values published in US9012655B2, “Antimicrobial/adjuvant compounds and methods” (Denouamed, Inc., priority 2011, dated 2015).
≈ marks a conversion by molar mass, not a printed value. Where two headings read alike, the source gives them in different places.

Key:
Format in all cases: cell-based
[1] = tested on: Bacillus cereus NCTC6349; experiment: MIC panel of challenge pathogens (CLSI)
Summary of the method: (§1)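 Broth microdilution per CLSI guidelines. Final inoculum 2-8×10^5 CFU/ml, compounds serially two-fold diluted from 128 mg/L top concentration. Incubated in the dark at 30-37° C for 24-48 h, aerobic or anaerobic as appropriate. MIC read visually as 100% inhibition endpoint; MIC50 and MIC80 also reported.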

[2] = tested on: Enterococcus faecalis ATCC29212; experiment: MIC panel of challenge pathogens (CLSI)
Summary of the method: as §1

[3] = tested on: Enterococcus faecium ATCC700221; experiment: MIC panel of challenge pathogens (CLSI)
Summary of the method: as §1

[4] = tested on: Staphylococcus aureus ATCC43300; experiment: MIC panel of challenge pathogens (CLSI)
Summary of the method: as §1

[5] = tested on: Staphylococcus aureus AUR59 7005; experiment: MIC panel of challenge pathogens (CLSI)
Summary of the method: as §1

[6] = tested on: Staphylococcus aureus AUR60 7005; experiment: MIC panel of challenge pathogens (CLSI)
Summary of the method: as §1

[7] = tested on: Staphylococcus aureus EUP MRSA002; experiment: MIC panel of challenge pathogens (CLSI)
Summary of the method: as §1

[8] = tested on: Staphylococcus aureus NRS1 (ATCC700699); experiment: MIC panel of challenge pathogens (CLSI); conditions: for MIC: read-out: 100% inhibition; for MIC50: read-out: MIC50 (50%); for MIC80: read-out: MIC80 (80%)
Summary of the method: as §1

[9] = tested on: Staphylococcus epidermidis NRS122; experiment: MIC panel of challenge pathogens (CLSI)
Summary of the method: as §1

[10] = tested on: Staphylococcus epidermidis NRS7; experiment: MIC panel of challenge pathogens (CLSI)
Summary of the method: as §1

[11] = tested on: Staphylococcus aureus EUP MRSA002; experiment: MIC panel of challenge pathogens (CLSI), EUP MRSA002
Experimental: The inocula for each bacterial strain were prepared by picking 5-10 distinct colonies from the culture plates and suspending them in the appropriate broth as per Clinical and Laboratory Standards Institute (CLSI) guidelines M07-A8, M24-A or M11-A7 as appropriate. The inoculum was resuspended by vigorous shaking on a vortex mixer for 15 s. The turbidity was then adjusted to McFarland standard 0.5 ([…]). The inoculum was further diluted in the appropriate media for MIC tests to give a final inoculum in each well of 2-8×10^5 CFU/ml. MICs were tested in the appropriate broth in accordance with the appropriate CLSI guidelines.
A stock solution of each compound was prepared at a concentration of 1.28 g/L in DMSO. The stock was further diluted in the appropriate media to give a top starting concentration of 128 mg/L in the assay. 100 μL of the appropriate media, as per CLSI guidelines, was dispensed into each well in columns 2-12. 200 μL of the each compound solution (at 256 mg/L) was dispensed into each well in column 1. 100 μL aliquots were pipetted from column 1 wells and dispensed into column 2 with a multichannel pipette (±2% coefficient of variation) thus diluting two-fold. 100 μL samples were then pipetted from column 2 wells and dispensed into column 3. The process was repeated through to column 10. The final 100 μL of diluted drug from column 10 was then discarded. Row 11 acted as a positive control (no compound, but organisms added), Row 12 acted as a negative control (no compound, and no organisms added).
100 μL of the appropriate inoculum suspension in the appropriate media, as per CLSI guidelines, was added to the appropriate wells. […] All plates were incubated in the dark under aerobic or anaerobic conditions at 30-37° C. for 24-48 hours, according to the appropriate CLSI guideline. Plates were read visually 24-48 hours post inoculation. Endpoints of 100% inhibition were determined (CLSI interpretation endpoints following visual examination).
MIC50, MIC80, and 100% inhibition results are reported below in μg/mL in the following Tables, indicating each compound tested against a given species and strain: […]

[12] = EUPMRSA002, Staphylococcus aureus EUP MRSA002, read-out: 100% inhibition
[13] = EUPMRSA002, Staphylococcus aureus EUP MRSA002, read-out: MIC50 (50%)
[14] = EUPMRSA002, Staphylococcus aureus EUP MRSA002, read-out: MIC80 (80%)
[15] = Staphylococcus aureus NRS1 (ATCC700699)
[16] = Staphylococcus aureus, EUPMRSA002, read-out: 100% inhibition
[17] = Staphylococcus aureus, EUPMRSA002, read-out: MIC50 (50%)
[18] = Staphylococcus aureus, EUPMRSA002, read-out: MIC80 (80%)

With Clc1ccc(Cc2sc(-c3nnn[nH]3)cc2-c2cccc(CC3CCCC3)c2)cc1 [DNM0610, 5-(5-(4-Chlorobenzyl)-4-(3-(cyclopentylmethyl)phenyl)thiophen-2-yl)-1H-tetrazole] the MIC ([1]; Bacillus cereus NCTC6349, read-out: 100% inhibition) was 0.5 µg/mL (≈ 1.15 µM), the MIC50 ([1]; Bacillus cereus NCTC6349, read-out: MIC50 (50%)) was 0.5 µg/mL (≈ 1.15 µM) and the MIC80 ([1]; Bacillus cereus NCTC6349, read-out: MIC80 (80%)) was 0.5 µg/mL (≈ 1.15 µM). The MIC ([2]; Enterococcus faecalis ATCC29212, read-out: 100% inhibition) was 1 µg/mL (≈ 2.3 µM), the MIC50 ([2]; Enterococcus faecalis ATCC29212, read-out: MIC50 (50%)) was 1 µg/mL (≈ 2.3 µM) and the MIC80 ([2]; Enterococcus faecalis ATCC29212, read-out: MIC80 (80%)) was 1 µg/mL (≈ 2.3 µM). The MIC ([3]; Enterococcus faecium ATCC700221, read-out: 100% inhibition) was 0.5 µg/mL (≈ 1.15 µM), the MIC50 ([3]; Enterococcus faecium ATCC700221, read-out: MIC50 (50%)) was 0.5 µg/mL (≈ 1.15 µM) and the MIC80 ([3]; Enterococcus faecium ATCC700221, read-out: MIC80 (80%)) was 0.5 µg/mL (≈ 1.15 µM). It also gave an MIC ([4]; Staphylococcus aureus ATCC43300, read-out: 100% inhibition) of 0.5 µg/mL (≈ 1.15 µM), an MIC50 ([4]; Staphylococcus aureus ATCC43300, read-out: MIC50 (50%)) of 0.5 µg/mL (≈ 1.15 µM) and an MIC80 ([4]; Staphylococcus aureus ATCC43300, read-out: MIC80 (80%)) of 0.5 µg/mL (≈ 1.15 µM). It also gave an MIC ([5]; AUR597005, Staphylococcus aureus AUR59 7005, read-out: 100% inhibition) of 0.5 µg/mL (≈ 1.15 µM), an MIC50 ([5]; AUR597005, Staphylococcus aureus AUR59 7005, read-out: MIC50 (50%)) of 0.5 µg/mL (≈ 1.15 µM) and an MIC80 ([5]; AUR597005, Staphylococcus aureus AUR59 7005, read-out: MIC80 (80%)) of 0.5 µg/mL (≈ 1.15 µM). It also gave an MIC ([6]; AUR607005, Staphylococcus aureus AUR60 7005, read-out: 100% inhibition) of 0.5 µg/mL (≈ 1.15 µM), an MIC50 ([6]; AUR607005, Staphylococcus aureus AUR60 7005, read-out: MIC50 (50%)) of 0.5 µg/mL (≈ 1.15 µM) and an MIC80 ([6]; AUR607005, Staphylococcus aureus AUR60 7005, read-out: MIC80 (80%)) of 0.5 µg/mL (≈ 1.15 µM). It also gave an MIC [7, 12] of 0.5 µg/mL (≈ 1.15 µM), an MIC50 [7, 13] of 0.5 µg/mL (≈ 1.15 µM) and an MIC80 [7, 14] of 0.5 µg/mL (≈ 1.15 µM). It also gave an MIC [8, 15] of no more than 0.25 µg/mL, an MIC50 [8, 15] of no more than 0.25 µg/mL and an MIC80 [8, 15] of no more than 0.25 µg/mL. The MIC ([9]; Staphylococcus epidermidis NRS122, read-out: 100% inhibition) was 16 µg/mL (≈ 36.8 µM), the MIC50 ([9]; Staphylococcus epidermidis NRS122, read-out: MIC50 (50%)) was 4 µg/mL (≈ 9.2 µM) and the MIC80 ([9]; Staphylococcus epidermidis NRS122, read-out: MIC80 (80%)) was 8 µg/mL (≈ 18.4 µM). It also gave an MIC ([10]; Staphylococcus epidermidis NRS7, read-out: 100% inhibition) of 2 µg/mL (≈ 4.6 µM), an MIC50 ([10]; Staphylococcus epidermidis NRS7, read-out: MIC50 (50%)) of 1 µg/mL (≈ 2.3 µM) and an MIC80 ([10]; Staphylococcus epidermidis NRS7, read-out: MIC80 (80%)) of 1 µg/mL (≈ 2.3 µM). It also gave an MIC [11, 12] of 0.5 µg/mL (≈ 1.15 µM), an MIC50 [11, 13] of 0.5 µg/mL (≈ 1.15 µM) and an MIC80 [11, 14] of 0.5 µg/mL (≈ 1.15 µM).
In the case of CN[C@H](CC(C)C)C(=O)N[C@H]1C(=O)N[C@@H](CC(N)=O)C(=O)N[C@H]2C(=O)N[C@H]3C(=O)N[C@H](C(=O)N[C@H](C(=O)O)c4cc(O)cc(O)c4-c4cc3ccc4O)[C@H](O)c3ccc(c(Cl)c3)Oc3cc2cc(c3O[C@@H]2O[C@H](CO)[C@@H](O)[C@H](O)[C@H]2O[C@H]2C[C@](C)(N)[C@H](O)[C@H](C)O2)Oc2ccc(cc2Cl)[C@H]1O [Vancomycin, reference compound], the MIC ([1]; Bacillus cereus, NCTC6349, read-out: 100% inhibition) is reported as 2 µg/mL (≈ 1.38 µM), the MIC50 ([1]; Bacillus cereus, NCTC6349, read-out: MIC50 (50%)) is reported as 1 µg/mL (≈ 0.69 µM) and the MIC80 ([1]; Bacillus cereus, NCTC6349, read-out: MIC80 (80%)) is reported as 2 µg/mL (≈ 1.38 µM). It also gave an MIC ([2]; Enterococcus faecalis, ATCC29212, read-out: 100% inhibition) of 4 µg/mL (≈ 2.76 µM), an MIC50 ([2]; Enterococcus faecalis, ATCC29212, read-out: MIC50 (50%)) of 4 µg/mL (≈ 2.76 µM) and an MIC80 ([2]; Enterococcus faecalis, ATCC29212, read-out: MIC80 (80%)) of 4 µg/mL (≈ 2.76 µM). It also gave an MIC ([3]; Enterococcus faecium, ATCC700221, read-out: 100% inhibition) greater than 16 µg/mL, an MIC50 ([3]; Enterococcus faecium, ATCC700221, read-out: MIC50 (50%)) greater than 16 µg/mL and an MIC80 ([3]; Enterococcus faecium, ATCC700221, read-out: MIC80 (80%)) greater than 16 µg/mL. The MIC ([4]; Staphylococcus aureus, ATCC43300, read-out: 100% inhibition) was 0.5 µg/mL (≈ 0.345 µM), the MIC50 ([4]; Staphylococcus aureus, ATCC43300, read-out: MIC50 (50%)) was 0.5 µg/mL (≈ 0.345 µM) and the MIC80 ([4]; Staphylococcus aureus, ATCC43300, read-out: MIC80 (80%)) was 0.5 µg/mL (≈ 0.345 µM). The MIC ([5]; Staphylococcus aureus, AUR597005, read-out: 100% inhibition) was 1 µg/mL (≈ 0.69 µM), the MIC50 ([5]; Staphylococcus aureus, AUR597005, read-out: MIC50 (50%)) was 0.5 µg/mL (≈ 0.345 µM) and the MIC80 ([5]; Staphylococcus aureus, AUR597005, read-out: MIC80 (80%)) was 0.5 µg/mL (≈ 0.345 µM). It also gave an MIC ([6]; Staphylococcus aureus, AUR607005, read-out: 100% inhibition) of 1 µg/mL (≈ 0.69 µM), an MIC50 ([6]; Staphylococcus aureus, AUR607005, read-out: MIC50 (50%)) of 0.5 µg/mL (≈ 0.345 µM) and an MIC80 ([6]; Staphylococcus aureus, AUR607005, read-out: MIC80 (80%)) of 1 µg/mL (≈ 0.69 µM). The MIC [7, 16] was 0.5 µg/mL (≈ 0.345 µM), the MIC50 [7, 17] was 0.5 µg/mL (≈ 0.345 µM) and the MIC80 [7, 18] was 0.5 µg/mL (≈ 0.345 µM). For the same compound, the MIC ([8]; Staphylococcus aureus) was 4 µg/mL (≈ 2.76 µM), the MIC50 ([8]; Staphylococcus aureus) was 2 µg/mL (≈ 1.38 µM) and the MIC80 ([8]; Staphylococcus aureus) was 4 µg/mL (≈ 2.76 µM). It also gave an MIC ([9]; Staphylococcus epidermidis, NRS122, read-out: 100% inhibition) of 2 µg/mL (≈ 1.38 µM), an MIC50 ([9]; Staphylococcus epidermidis, NRS122, read-out: MIC50 (50%)) of 1 µg/mL (≈ 0.69 µM) and an MIC80 ([9]; Staphylococcus epidermidis, NRS122, read-out: MIC80 (80%)) of 1 µg/mL (≈ 0.69 µM). It also gave an MIC ([10]; Staphylococcus epidermidis, NRS7, read-out: 100% inhibition) of 4 µg/mL (≈ 2.76 µM), an MIC50 ([10]; Staphylococcus epidermidis, NRS7, read-out: MIC50 (50%)) of 2 µg/mL (≈ 1.38 µM) and an MIC80 ([10]; Staphylococcus epidermidis, NRS7, read-out: MIC80 (80%)) of 4 µg/mL (≈ 2.76 µM). It also gave an MIC [11, 16] of 0.5 µg/mL (≈ 0.345 µM), an MIC50 [11, 17] of 0.5 µg/mL (≈ 0.345 µM) and an MIC80 [11, 18] of 0.5 µg/mL (≈ 0.345 µM).
